The supplement of paper PMC13380429

How the values were obtained:
Conditions in all cases: 72 h
HepG2 [1] = assay: cell viability relative to DMSO; higher = less toxic
U2OS [2] = assay: as above
Vero E6 [3] = assay: as above
Calu-3 [4] = assay: as above
Caco-2 [5] = assay: as above
HepG2 [6] = assay: relative viability EC50 (midpoint between 100% and the lowest measured viability); higher = less toxic
U2OS [7] = assay: as above
Vero E6 [8] = assay: as above
Calu-3 [9] = assay: as above
Caco-2 [10] = assay: as above
HepG2 [11] = assay: drug sensitivity score (DSS) for viability; higher = more toxic; extreme values may be limits of the assay
U2OS [12] = assay: as above
Vero E6 [13] = assay: as above
Calu-3 [14] = assay: as above
Caco-2 [15] = assay: as above

| Compound | cell viability (HepG2 [1]; 1 nM) | cell viability (HepG2 [1]; 10 nM) | cell viability (HepG2 [1]; 100 nM) | cell viability (HepG2 [1]; 1000 nM) | cell viability (HepG2 [1]; 10000 nM) | cell viability (U2OS [2]; 1 nM) | cell viability (U2OS [2]; 10 nM) | cell viability (U2OS [2]; 100 nM) | cell viability (U2OS [2]; 1000 nM) | cell viability (U2OS [2]; 10000 nM) | cell viability (Vero E6 [3]; 1 nM) | cell viability (Vero E6 [3]; 10 nM) | cell viability (Vero E6 [3]; 100 nM) | cell viability (Vero E6 [3]; 1000 nM) | cell viability (Vero E6 [3]; 10000 nM) | cell viability (Calu-3 [4]; 1 nM) | cell viability (Calu-3 [4]; 10 nM) | cell viability (Calu-3 [4]; 100 nM) | cell viability (Calu-3 [4]; 1000 nM) | cell viability (Calu-3 [4]; 10000 nM) | cell viability (Caco-2 [5]; 1 nM) | cell viability (Caco-2 [5]; 10 nM) | cell viability (Caco-2 [5]; 100 nM) | cell viability (Caco-2 [5]; 1000 nM) | cell viability (Caco-2 [5]; 10000 nM) | relative viability EC50 (HepG2 [6]) | relative viability EC50 (U2OS [7]) | relative viability EC50 (Vero E6 [8]) | relative viability EC50 (Calu-3 [9]) | relative viability EC50 (Caco-2 [10]) | drug sensitivity score (HepG2 [11]) | drug sensitivity score (U2OS [12]) | drug sensitivity score (Vero E6 [13]) | drug sensitivity score (Calu-3 [14]) | drug sensitivity score (Caco-2 [15]) |
| --- | --- | --- | --- | --- | --- | --- | --- | --- | --- | --- | --- | --- | --- | --- | --- | --- | --- | --- | --- | --- | --- | --- | --- | --- | --- | --- | --- | --- | --- | --- | --- | --- | --- | --- | --- |
| CC(=O)OCC1=C(C(=O)O)N2C(=O)[C@@H](NC(=O)CSc3ccncc3)[C@H]2SC1 [cephapirin] | 104% | 91.1% | 102% | 93.3% | 103% | 96.6% | 99.6% | 93.8% | 94.6% | 104% | 95.6% | 98% | 95.6% | 97.1% | 102% | 98.9% | 92.3% | 90.9% | 101% | 97.7% | 93.9% | 109% | 94.8% | 97.6% | 96.1% | > 10 µM | > 10 µM | > 10 µM | > 10 µM | > 10 µM | 0 | 0 | 0 | 0 | 0 |
| Cc1nc(C)c(C)nc1C [chuanxiongzine] | 105% | 88.9% | 97.1% | 92% | 97.3% | 98.5% | 102% | 98.6% | 101% | 95.7% | 104% | 97.1% | 104% | 104% | 105% | 105% | 106% | 89.9% | 101% | 84.8% | 110% | 105% | 95.7% | 112% | 105% | > 10 µM | > 10 µM | > 10 µM | > 10 µM | > 10 µM | 0 | 0 | 0 | 0.2 | 0 |
| O=C1CCc2cc(OCCCCc3nnnn3C3CCCCC3)ccc2N1 [cilostazol] | 114% | 99.9% | 110% | 99.4% | 92.6% | 93.2% | 96.9% | 94% | 96.5% | 95% | 91.5% | 99% | 96.9% | 101% | 95.7% | 94.3% | 107% | 99.1% | 115% | 111% | 97.5% | 104% | 99.7% | 101% | 90.3% | > 10 µM | > 10 µM | > 10 µM | > 10 µM | > 10 µM | 0 | 0 | 0 | 0 | 0 |
| CCC(CC)(CC(=O)Nc1cccc(/C=C/c2nc(C3CCC3)cs2)c1)C(=O)O [cinalukast] | 97.4% | 108% | 106% | 91.9% | 95.7% | 102% | 96.7% | 107% | 99.4% | 103% | 101% | 109% | 101% | 98.2% | 96.6% | 98.9% | 89.9% | 88.1% | 88.4% | 101% | 99.2% | 97.1% | 102% | 96.9% | 90.7% | > 10 µM | > 10 µM | > 10 µM | > 10 µM | > 10 µM | 0 | 0 | 0 | 0 | 0 |
| CN(C)CCCSc1ccccc1NC(=O)/C=C/c1ccccc1 [cinanserin] | 94.3% | 94.1% | 101% | 102% | 85.8% | 108% | 99.6% | 98.5% | 97.2% | 97.6% | 99.4% | 99.9% | 97% | 101% | 87.9% | 108% | 98.6% | 98.1% | 90.7% | 98.9% | 92.4% | 95% | 94.4% | 97.3% | 102% | > 10 µM | > 10 µM | > 10 µM | > 10 µM | > 10 µM | 0.1 | 0 | 0 | 0 | 0 |
| COc1cc(/C=C/C(=O)N2CCN(CC(=O)N3CCCC3)CC2)cc(OC)c1OC [cinepazide] | 101% | 96.9% | 90.8% | 98.2% | 96.1% | 92.6% | 97.5% | 92.1% | 100% | 95.6% | 98.5% | 98.1% | 102% | 100% | 98.6% | 104% | 96% | 95.8% | 94% | 101% | 96.4% | 105% | 94.9% | 103% | 91.3% | > 10 µM | > 10 µM | > 10 µM | > 10 µM | > 10 µM | 0 | 0 | 0 | 0 | 0 |
| CC(C)(Oc1ccc(Cl)cc1)C(=O)O [clofibric-acid] | 93.7% | 106% | 95.6% | 105% | 96.2% | 101% | 95.1% | 99.9% | 94.9% | 99.2% | 102% | 101% | 97.7% | 93.3% | 94.2% | 94.2% | 96.5% | 100% | 92.5% | 96.2% | 95.5% | 96.6% | 101% | 99.3% | 99.1% | > 10 µM | > 10 µM | > 10 µM | > 10 µM | > 10 µM | 0 | 0 | 0 | 0 | 0 |
